# Patent US7419969B2 (Bristol-Myers Squibb Company, priority 2004, dated 2008)
# Molecular target: T1, HIV-integrase (Human immunodeficiency virus type 1 group M subtype B, UniProt P04585)
# T1 construct: Recombinant integrase (0.26 ng) was incubated with the beads
# Assay: in-vitro activity against HIV-integrase (HIV Integrase Inhibition, SPA bead assay)
# Format: biochemical
# Settings: Table 1; recombinant integrase, activity class
# Experimental: To evaluate in-vitro activity against HIV-integrase, 5 pmole of biotin labeled substrate DNA was bound to 100 μg of Streptavidin coated PVT SPA beads (Amersham Pharmacia Biotech). Recombinant integrase (0.26 ng) was incubated with the beads for 90 min at 37° C. Unbound enzyme was removed by washing the complex followed by addition of inhibitors and […] of P33 labeled target DNA. The reaction was stopped by adding EDTA to a final concentration of 10 mM. Samples were counted in TopCountNXT (Packard) and the CPM was used as a measure of integration. The reaction condition was as described in Engelman, A. and Craigie, R. J. Vitrol. 1996, 69, 5908. The sequences of substrate and target DNA were described in Nucleic Acid Research 1994, 22, 1121.
row,SMILES,IC50 [nM]
1,"O=C(NCc1cc(F)ccc1F)c1nc2n(c(=O)c1O)CCCC21CCC1 [Example 75, N-[(2,5-difluorophenyl)methyl]-7′,8′-dihydro-3′-hydroxy-4′-oxo-spiro[cyclobutane-1,9′(6′H)-[4H]pyrido[1,2-α]pyrimidine]-2′-carboxamide]",10 to 100
2,"Cc1cc(CNC(=O)c2nc3n(c(=O)c2O)CCOC32CCOC2)ccc1F (stereo not drawn) [Example 37, N-[(4-fluoro-3-methylphenyl)methyl]-4,5,6′,7′-tetrahydro-3′-hydroxy-4′-oxo-spiro[furan-3(2H),9′(4′H)-pyrimido[2,1-c][1,4]oxazine]-2′-carboxamide]",1 to 10
3,"COc1ccc(CNC(=O)c2nc3n(c(=O)c2O)CCOC32CCCC2)cc1 [Example 23, 6′,7′-dihydro-3′-hydroxy-N-[(4-methoxyphenyl)methyl]-4′-oxo-spiro[cyclopentane-1,9′(4′H)-pyrimido[2,1-c][1,4]oxazine]-2′-carboxamide]",10 to 100
4,"CS(=O)(=O)c1cc(F)ccc1CNC(=O)c1nc2n(c(=O)c1O)CCCC21CCCC1 [Example 11, N-[[4-fluoro-2-(methylsulfonyl)phenyl]methyl]-7′,8′-dihydro-3′-hydroxy-4′-oxo-spiro[cyclopentane-1,9′(6′H)-[4H]pyrido[1,2-α]pyrimidine]-2′-carboxamide]",1 to 10
5,"O=C(NCc1ccc(F)cc1)c1nc2n(c(=O)c1O)CCOC21CCC1 [Example 52, N-[(4-fluorophenyl)methyl]-6′,7′-dihydro-3′-hydroxy-4′-oxo-spiro[cyclobutane-1,9′(4′H)-pyrimido[2,1-c][1,4]oxazine]-2′-carboxamide]",1 to 10
6,"O=C(NCc1ccccc1N1CCCCS1(=O)=O)c1nc2n(c(=O)c1O)CCCC21CCC1 [Example 83, 7′,8′-dihydro-3′-hydroxy-4′-oxo-N-[[2-(tetrahydro-1,1-dioxido-2H-1,2-thiazin-2-yl)phenyl]methyl]-spiro[cyclobutane-1,9′(6′H)-[4H]pyrido[1,2-α]pyrimidine]-2′-carboxamide]",10 to 100
7,"O=C(NCc1ccc(Cl)c(Cl)c1)c1nc2n(c(=O)c1O)CCCC21CCC1 [Example 70, N-[(3,4-dichlorophenyl)methyl]-7′,8′-dihydro-3′-hydroxy-4′-oxo-spiro[cyclobutane-1,9′(6′H)-[4H]pyrido[1,2-α]pyrimidine]-2′-carboxamide]",1 to 10
8,"Cc1ncn(-c2cc(F)ccc2CNC(=O)c2nc3n(c(=O)c2O)CCOC32CCOCC2)n1 [Example 50, N-[[4-fluoro-2-(3-methyl-1H-1,2,4-triazol-1-yl)phenyl]methyl]-2,3,5,6,6′,7′-hexahydro-3′-hydroxy-4′-oxo-spiro[4H-pyran-4,9′(4′H)-pyrimido[2,1-c][1,4]oxazine]-2′-carboxamide]",1 to 10
9,"O=C(NCc1ccc(Cl)c(Cl)c1)c1nc2n(c(=O)c1O)CCOC21CCCC1 [Example 21, N-[(3,4-dichlorophenyl)methyl]-6′,7′-dihydro-3′-hydroxy-4′-oxo-spiro[cyclopentane-1,9′(4′H)-pyrimido[2,1-c][1,4]oxazine]-2′-carboxamide]",1 to 10
10,"COc1ccc(CNC(=O)c2nc3n(c(=O)c2O)CCOC32CCOCC2)c(OC)c1 [Example 46, N-[(2,4-dimethoxyphenyl)methyl]-2,3,5,6,6′,7′-hexahydro-3′-hydroxy-4′-oxo-spiro[4H-pyran-4,9′(4′H)-pyrimido[2,1-c][1,4]oxazine]-2′-carboxamide]",10 to 100
11,"O=C(NCc1ccc(F)cc1)c1nc2n(c(=O)c1O)CCCOC21CCC1 [Example 59, N-[(4-fluorophenyl)methyl]-7′,8′-dihydro-3′-hydroxy-4′-oxo-spiro[cyclobutane-1,1 0′(4′H)-[6H]pyrimido[2,1-c][1,4]oxazepine]-2′-carboxamide]",1 to 10
12,"O=C(NCc1cccc(F)c1)c1nc2n(c(=O)c1O)CCOC21CCCC1 [Example 26, N-[(3-fluorophenyl)methyl]-6′,7′-dihydro-3 ′-hydroxy-4′-oxo-spiro[cyclopentane-1,9′(4′H)-pyrimido[2,1-c][1,4]oxazine]-2′-carboxamide]",10 to 100
13,"Cc1cc(CNC(=O)c2nc3n(c(=O)c2O)CCOC32CCCC2)ccc1F [Example 16, N-[(4-fluoro-3-methylphenyl)methyl]-6′,7′-dihydro-3′-hydroxy-4′-oxo-spiro[cyclopentane-1,9′(4′H)-pyrimido[2,1-c][1,4]oxazine]-2′-carboxamide]",1 to 10
14,"O=C(NCc1cc(F)ccc1-n1cncn1)c1nc2n(c(=O)c1O)CCCC21CCCC1 [Example 5, N-[[5-fluoro-2-(1H-1,2,4-triazol-1-yl)phenyl]methyl]-7′,8′-dihydro-3′-hydroxy-4′-oxo-spiro[cyclopentane-1,9′(6′H)-[4H]pyrido[1,2-α]pyrimidine]-2′-carboxamide]",1 to 10
15,"O=C(NCc1ccc(F)cc1-n1cncn1)c1nc2n(c(=O)c1O)CCOC21CCC1 [Example 51, N-[[4-fluoro-2-(1H-1,2,4-triazol-1-yl)phenyl]methyl]-6′,7′-dihydro-3′-hydroxy-4′-oxo-spiro[cyclobutane-1,9′(4′H)-pyrimido[2,1-c][1,4]oxazine]-2′-carboxamide]",1 to 10

# Same assay, conditions: Table 1a; recombinant integrase, activity class
row,SMILES,IC50 [nM]
1,"O=C(NCc1ccccc1N1CCC1=O)c1nc2n(c(=O)c1O)CCOC21CCC1 [Example 125, Spiro[cyclobutane-1,9′(4′H)-pyrimido[2,1-c][1,4]oxazine]-2′-carboxamide, 6′,7′-dihydro-3′-hydroxy-4′-oxo-N-[[2-(2-oxo-1-azetidinyl)phenyl]methyl]-]",1 to 10
2,"CN1CCn2c(nc(C(=O)NCc3ccc(F)cc3)c(O)c2=O)C12CCCC2 [Example 92, Spiro[cyclopentane-1,9′(6′H)-[4H]pyrazino[1,2-a]pyrimidine]-2′-carboxamide, N-[(4-fluorophenyl)methyl]-7′,8′-dihydro-3′-hydroxy-8′-methyl-4′-oxo-]",1 to 10
3,"O=C(NCc1ccc(F)cc1N1CCC1=O)c1nc2n(c(=O)c1O)CCOC21CCC1 [Example 106, Spiro[cyclobutane-1,9′(4′H)-pyrimido[2,1-c][1,4]oxazine]-2′-carboxamide, N-[[4-fluoro-2-(2-oxo-1-azetidinyl)phenyl]methyl]-6′,7′-dihydro-3′-hydroxy-4′-oxo-]",1 to 10
4,"Cc1ncn(-c2cc(F)ccc2CNC(=O)c2nc3n(c(=O)c2O)CCOC32CCC2)n1 [Example 124, Spiro[cyclobutane-1,9′(4′H)-pyrimido[2,1-c][1,4]oxazine]-2′-carboxamide, N-[[4-fluoro-2-(3-methyl-1H-1,2,4-triazol-1-yl)phenyl]methyl]-6′,7′-dihydro-3′-hydroxy-4′-oxo-]",1 to 10
5,"CN1CCn2c(nc(C(=O)NCc3ccc(F)cc3-n3cncn3)c(O)c2=O)C12CCC2 [Example 99, Spiro[cyclobutane-1,9′(6′H)-[4H]pyrazino[1,2-a]pyrimidine]-2′-carboxamide, N-[[4-fluoro-2-(1H-1,2,4-triazol-1-yl)phenyl]methyl]-7′,8′-dihydro-3′-hydroxy-8′-methyl-4′-oxo-]",1 to 10
6,"Cc1ncn(-c2cc(F)ccc2CNC(=O)c2nc3n(c(=O)c2O)CCOC32COC2)n1 [Example 108, Spiro[oxetane-3,9′(4′H)-pyrimido[2,1-c][1,4]oxazine]-2′-carboxamide, N-[[4-fluoro-2-(3-methyl-1H-1,2,4-triazol-1-yl)phenyl]methyl]-6′,7′-dihydro-3′-hydroxy-4′-oxo-]",1 to 10
